Measured values from ChEMBL document CHEMBL1135329, “DNA binding ligands with excellent antibiotic potency against drug-resistant gram-positive bacteria” (Bioorg Med Chem Lett, 2002).
Converted amounts (≈) assume the structure as drawn.

Columns and labels:
Assay type in all cases: functional
[1] = tested on: Candida albicans; assay: Antifungal activity was determined against Candida albicans
[2] = tested on: Enterococcus faecalis; assay: Antimicrobial activity was determined against vancomycin-susceptible Enterococcus faecalis (VSEF 29212)
[3] = tested on: Streptococcus pneumoniae; assay: Antimicrobial activity was determined against penicillin-susceptible Streptococcus pneumoniae (PSSP 49619)
[4] = tested on: Escherichia coli; assay: Binding to the sequence 5'-ACAATTAA-3', a site proximal to the […] RNA polymerase subunit binding site within the Escherichia coli Trc promoter.; details: read-out: Kd app
[5] = tested on: Enterococcus faecalis; assay: Antimicrobial activity was determined against vancomycin-resistant Enterococcus faecalis (VREF 51559)
[6] = tested on: Staphylococcus aureus; assay: Antimicrobial activity was determined against methicillin-resistant Staphylococcus aureus (MRSA 27660)
[7] = tested on: Staphylococcus aureus; assay: Antimicrobial activity was determined against methicillin-susceptible S. aureus(MSSA 29213)
[8] = tested on: Streptococcus pneumoniae; assay: Antimicrobial activity was determined against penicillin-resistant Streptococcus pneumoniae (PRSP 51422)

| SMILES | MIC [1] [µg/mL] | MIC [2] [µg/mL] | MIC [3] [µg/mL] | Kd [4] [nM] | MIC [5] [µg/mL] | MIC [6] [µg/mL] | MIC [7] [µg/mL] | MIC [8] [µg/mL] |
| --- | --- | --- | --- | --- | --- | --- | --- | --- |
| Cn1cc(NC(=O)c2cc(NC(=O)c3cc(NC(=O)c4nsc(NCCCO)c4Cl)cn3C)cn2C)cc1C(=O)NCCN1CCOCC1 | > 32 | 0.125 (≈ 0.175 µM) | 0.5 (≈ 0.699 µM) | 1.03 | 0.5 (≈ 0.699 µM) | 2 (≈ 2.8 µM) | 1 (≈ 1.4 µM) | 0.031 (≈ 0.0433 µM) |
| Cn1cc(NC(=O)c2cc(NC(=O)c3cc(NC(=O)c4nsc(NCCN5CCOCC5)c4Cl)cn3C)cn2C)cc1C(=O)NCC1CC1 | > 32 | 0.5 (≈ 0.703 µM) | 1 (≈ 1.41 µM) | 208 | 1 (≈ 1.41 µM) | 8 (≈ 11.2 µM) | 16 (≈ 22.5 µM) | 0.5 (≈ 0.703 µM) |
| Cn1cc(NC(=O)c2cc(NC(=O)c3cc(NC(=O)c4nsc(NCCCNC5CCCCC5)c4Cl)cn3C)cn2C)cc1C(=O)NCCN1CCOCC1 | 16 (≈ 20.1 µM) | 2 (≈ 2.51 µM) | 0.062 (≈ 0.0779 µM) | 0.59 | 16 (≈ 20.1 µM) | 8 (≈ 10 µM) | 2 (≈ 2.51 µM) | 0.25 (≈ 0.314 µM) |
| Cn1cc(NC(=O)c2cc(NC(=O)c3cc(NC(=O)c4nsc(N5CCCCC5)c4Cl)cn3C)cn2C)cc1C(=O)NCCN1CCOCC1 | > 32 | 1 (≈ 1.38 µM) | 0.125 (≈ 0.172 µM) | 4 | 1 (≈ 1.38 µM) | 1 (≈ 1.38 µM) | 2 (≈ 2.76 µM) | 0.062 (≈ 0.0855 µM) |
| CCOCCCNc1snc(C(=O)Nc2cc(C(=O)Nc3cc(C(=O)Nc4cc(C(=O)NCCN5CCOCC5)n(C)c4)n(C)c3)n(C)c2)c1Cl | > 32 | 0.25 (≈ 0.336 µM) | 0.25 (≈ 0.336 µM) | 1.34 | 2 (≈ 2.69 µM) | 2 (≈ 2.69 µM) | 1 (≈ 1.35 µM) | 0.125 (≈ 0.168 µM) |
| Cn1cc(NC(=O)c2cc(NC(=O)c3cc(NC(=O)c4nsc(NCCN5CCOCC5)c4Cl)cn3C)cn2C)cc1C(=O)NCCN1CCOCC1 | > 32 | 0.25 (≈ 0.325 µM) | 0.062 (≈ 0.0805 µM) | 9.09 | 2 (≈ 2.6 µM) | 4 (≈ 5.19 µM) | 1 (≈ 1.3 µM) | 0.25 (≈ 0.325 µM) |
| Cn1cc(NC(=O)c2cc(NC(=O)c3cc(NC(=O)c4nsc(NCC5CC5)c4Cl)cn3C)cn2C)cc1C(=O)NCCN1CCOCC1 | > 32 | 0.25 (≈ 0.351 µM) | 0.125 (≈ 0.176 µM) | 1.01 | 1 (≈ 1.41 µM) | 1 (≈ 1.41 µM) | 0.5 (≈ 0.703 µM) | 0.125 (≈ 0.176 µM) |
| CN(C)CCCNC(=O)c1cc(NC(=O)c2cc(NC(=O)c3cc(NC(=O)c4nsc(NCCCCN)c4Cl)cn3C)cn2C)cn1C | 8 (≈ 11.4 µM) | 1 (≈ 1.43 µM) | 0.5 (≈ 0.714 µM) | 1.04 | 1 (≈ 1.43 µM) | 2 (≈ 2.86 µM) | 2 (≈ 2.86 µM) | 1 (≈ 1.43 µM) |
| Cn1cc(NC(=O)c2cc(NC(=O)c3cc(NC(=O)c4nsc(NCCCNC5CCCCC5)c4Cl)cn3C)cn2C)cc1C(=O)NCCCCN | 4 (≈ 5.3 µM) | 2 (≈ 2.65 µM) | 1 (≈ 1.33 µM) | 2 | 16 (≈ 21.2 µM) | 2 (≈ 2.65 µM) | 2 (≈ 2.65 µM) | 16 (≈ 21.2 µM) |
| Cn1cc(NC(=O)c2cc(NC(=O)c3cc(NC(=O)c4nsc(NCCCCN)c4Cl)cn3C)cn2C)cc1C(=O)NCCCNC1CCCCC1 | 32 (≈ 42.4 µM) | 0.5 (≈ 0.663 µM) | 1 (≈ 1.33 µM) | 0.43 | 2 (≈ 2.65 µM) | 1 (≈ 1.33 µM) | 0.5 (≈ 0.663 µM) | 4 (≈ 5.3 µM) |
